The source of these data is ChEMBL document CHEMBL4130449, “Bioactive Seco-Lanostane-Type Triterpenoids from the Roots of Leplaea mayombensis” (J Nat Prod, 2017).

Broadly, the IC50 is the concentration that inhibits the measured activity by half.

The test system of this experiment is MDA-MB-231. The experiment is described as follows: Cytotoxicity against human MDA-MB-231 cells after 3 days by Celltiter-Glo assay. Format: functional, cell-based. As to conditions: MDA-MB-231, 72 h.
In turn, `C=C(C)[C@H]1CC=C2[C@@H](CC[C@]3(C)[C@@H]([C@@H](CCC=C(C)C)C(=O)O)CC[C@@]23C)[C@]1(C)CCC(=O)OC` registered an IC50 of 55 µM. Consider `C=C(C)[C@H]1CC=C2[C@@H](CC[C@]3(C)[C@@H]([C@@H](CCC=C(C)C)C(=O)O)CC[C@@]23C)[C@]1(C)CCC(=O)NCc1ccc(Br)cc1`, for which the midpoint of inhibition, the IC50, lay at 140 µM. Then `C=C(C)[C@H]1CC=C2[C@@H](CC[C@]3(C)[C@@H]([C@@H](CCC=C(C)C)C(=O)O)CC[C@@]23C)[C@]1(C)CCC(=O)O`, with 127 µM; and `C=C(C)[C@H]1CC=C2[C@@H](CC[C@]3(C)[C@@H]([C@@H](CCC=C(C)C)C(=O)OC)CC[C@@]23C)[C@]1(C)CCC(=O)OC`, with 63.5 µM. For the molecule `CC[C@H](/C=C/[C@@H](C)[C@H]1CC[C@H]2[C@@H]3CC=C4C[C@@H](O)CC[C@]4(C)[C@H]3CC[C@]12C)C(C)C` [STIGMASTEROL], the midpoint of inhibition, the IC50, lay at 564 µM.
